Measured values from patent US11242337B2, “Compounds useful for treating gastrointestinal tract disorders” (Ardelyx, Inc., priority 2017, dated 2022).
Where two headings read alike, the source gives them in different places.

Tests used:
[1] = test system: absorption of sodium from the intestinal lumen; assay: Inhibition of intestinal sodium absorption in mice; assay type: in vivo; details: CD-1 mice, 15 mg/kg oral gavage twice daily; for Fecal fluid content (Δ from vehicle): day 3, change from vehicle group mean; for response vs control in vivo at 15 mg/kg: Mus musculus, 72 h, day 3, normalized to dietary sodium intake
Experimental: Urinary and fecal sodium excretions were measured to assess the ability of selected example compounds to inhibit the absorption of sodium from the intestinal lumen. In addition, an assessment of the absence or presence of diarrhea in response to compound treatment was made. Approximately eight-week old, male, CD-1 mice were purchased from Envigo (Livermore, Calif.), were housed 6 per cage and acclimated for at least 48 hours before study initiation. Animals were fed Harlan Teklad Global TD.160470 rodent chow (Madison, Wis.), standard laboratory rodent chow Harlan Teklad Global 2018 with the addition of 0.4% inorganic phosphorous. […] To initiate the study, mice were weighed and then individually placed in metabolic cages. Following a 3-day acclimation period to the metabolic cage, a 24-hr baseline collection of urine and feces was performed. […] Each day, measurements of body weight. 24-hour food intake, water intake, urine volume and wet fecal weight were recorded, along with any observation of diarrhea. Fecal samples were dried using a lyophilizer for at least 3 days, following which dry weight was recorded and fecal fluid content was calculated based on the difference between the wet and dry stool weights. Fecal fluid content on day 3 of compound treatment was calculated as a change from the vehicle group mean. For urine samples, the volumes were determined gravimetrically. Feces and urine were analyzed for sodium content by microwave plasma-atomic emission spectroscopy or ion chromatography, respectively. Urine samples were analyzed on an ion chromatography system (Thermo Fisher ICS-3000 or ICS-5000+) coupled with conductivity detectors. Chromatographic separation of cations was performed using an IonPac CS12A (Thermo Fisher) 2×250 mm analytical column with an isocratic elution using […] methanesulfonic acid. Concentrations were interpolated from a a standard curve (prepared in 10 mM HCl) for sodium ion based on retention time and peak area. Fecal sample analysis by Microwave Plasma Atomic Emission Spectrometry (MP-AES). Dry fecal samples were ground into a fine powder on a homogenizer and the ground samples (400-600 mg aliquots weighed) were digested with nitric acid by microwave method (Mars 6). These digested samples were diluted with 1% Nitric acid and analyzed on Agilent 4100 MP-AES. Concentrations were calculated relative to a standard curve (prepared in 1% Nitric acid) for sodium based on the signal intensity. Sodium was detected at a wavelength of 588.995 nm. Twenty-four-hour urinary sodium excretion (ma/24-hours) was calculated by multiplying urinary sodium concentration by 24-hour urine volume. Twenty-four-hour fecal sodium excretion (mg/24-hours) was calculated by multiplying fecal sodium concentration by 24-hour dry fecal weight. The urinary and fecal sodium excretion on day 3 of compound treatment were normalized to dietary sodium intake and expressed as a percentage of the vehicle mean.

[2] = test system: human duodenum monolayer culture; assay: Increased trans-epithelial resistance (TEER) in human organoid monolayer cell cultures; assay type: cell-based; details: 1 μM apical, baseline corrected
Experimental: Basal media (B consisted of advanced DMEM/F12 containing 10 mM HEPES (Invitrogen, 15630-080), 1:100 Glutamax (Invitrogen, 35050-061), and 1:100 penicillin/streptomycin (Invitrogen, 15140-122). Supplemented basal media (SBM) contained 1:100 N2 (Invitrogen, 17502-048), 1:50 B27 (Invitrogen, 12587-010), 1 mM N-acetylcysteine (Sigma, A9165), and 10 nM [Leu15]-gastrin I (Sigma, G9145). Growth factors used included 50 ng per mL mouse EGF (Peprotech, 315-09), 100 ng per mL mouse noggin (Peprotech, 250-38), 500 ng per mL human R-spondin 1 (R&D, 4645-RS), 100 ng per mL mouse Wnt-3a (R&D, 1324-WN), 20 μM Y-27632 (Tocris, 1254), 10 mM nicotinamide (Sigma, N0636), 500 nM A83-01 (Tocris, 2939), 10 μM SB202190 (Tocris, 1264). Transwells were 0.4 μm pore polyester membrane 24-well Transwell inserts (Corning). Cultures were incubated at 37° C. in 5% CO2.
Human duodenum organoids were cultured in WENRNAS (Wnt, EGF, noggin, R-spondin1, Nicotinamide, A83-01, SB202190) and typically grown for 7-12 days before being used to plate monolayer cultures. On day 0, organoid cultures embedded in Matrigel were treated with TrypLE Express to break organoids into small pieces and/or single cells. The cells were resuspended to 0.5×10^6 cells/mL in SBM containing WENRAY (Wnt, EGF, noggin, R-spondin1, A83-01, Y-27632). Following this step, 200 μL of cell suspension was plated into the apical side of a 24-well Transwell (100,000 cells/well) and 600 μL of SBM with WENRAY was added to the basolateral side. Duodenum cells were differentiated with ENA (EGF, noggin, A83-01) on day 3. The color of apical compartment turns from pink or orange to yellow due to the increase in NHE3 expression after differentiation.
Each human duodenum monolayer culture well was washed twice with fresh SBM on the apical side on day 6 or day 7 before dosing. All compound stocks were 10 mM dissolved DMSO. Each compound stock was individually mixed with fresh SBM to reach final compound concentration 1 μM and dosed only on the apical side of the monolayer (total volume 200 μl). DMSO at the equivalent concentration was used as the vehicle control. Duplicate wells were dosed for each compound. Transepithelial electrical resistance (TEER) was used as a quantitative technique to measure of tight junction permeability. TEER values were recorded (MERS00002, Millipore) before dosing and 30 mins and 1 hr after dosing for all wells. Each of the duplicate TEER values following treatment were corrected for the individual well baseline TEER. Baseline corrected TEER for each example compound was compared to the average of the DMSO wells and expressed as a percent TEER of vehicle control.

[3] = read-out: Fecal Na Excretion (% of vehicle)
[4] = read-out: Urinary Na Excretion (% of vehicle)

Structure (SMILES)	Fecal fluid content (Δ from vehicle) [1]	response vs control in vivo at 15 mg/kg [1, 3] [%]	response vs control in vivo at 15 mg/kg [1, 4] [%]	activity at 1 µM ([2]; 1 hr after dosing, read-out: TEER at 60 minutes (% of Vehicle)) [%]	activity at 1 µM ([2]; 0.5 h, 30 mins after dosing, read-out: TEER at 30 minutes (% of Vehicle)) [%]
Cc1cc(S(=O)(=O)N2CC[C@@H](COc3ccnc(CNC(=O)NCCCCNC(=O)NCc4cc(OC[C@@H]5CCN(S(=O)(=O)c6ccc(O[C@H]7c8cc(Cl)cc(Cl)c8C[C@@H]7N(C)C)c(C)c6)C5)ccn4)c3)C2)ccc1O[C@H]1c2cc(Cl)cc(Cl)c2C[C@@H]1N(C)C [Example 49, 3-[(4-[[(3R)-1-[(4-[[(1S,2S)-4,6-Dichloro-2-(dimethylamino)-2,3-dihydro-1H-inden-1-yl]oxy]-3-methylbenzene)sulfonyl]pyrrolidin-3-yl]methoxy]pyridin-2-yl)methyl]-1-[4-([[(4-[[(3R)-1-[(4-[[(1S,2S)-4,6-dichloro-2-(dimethylamino)-2,3-dihydro-1H-inden-1-yl]oxy]-3-methylbenzene)sulfonyl]pyrrolidin-3-yl]methoxy]pyridin-2-yl)methyl]carbamoyl]amino)butyl]urea]	A (<5)	< 150	> 70	–	–
Cc1cc(S(=O)(=O)N[C@H]2CCN(CCOCCNC(=O)NCCCCNC(=O)NCCOCCN3CC[C@H](NS(=O)(=O)c4ccc(O[C@H]5c6cc(Cl)cc(Cl)c6C[C@@H]5N(C)C)c(C)c4)C3)C2)ccc1O[C@H]1c2cc(Cl)cc(Cl)c2C[C@@H]1N(C)C [Example 52, 3-(2-[2-[(3S)-3-[(4-[[(1S,2S)-4,6-Dichloro-2-(dimethylamino)-2,3-dihydro-1H-inden-1-yl]oxy]-3-methylbenzene)sulfonamido]pyrrolidin-1-yl]ethoxy]ethyl)-1-(4-[[(2-[2-[(3S)-3-[(4-[[(1S,2S)-4,6-dichloro-2-(dimethylamino)-2,3-dihydro-1H-inden-1-yl]oxy]-3-methylbenzene)sulfonamido]pyrrolidin-1-yl]ethoxy]ethyl)carbamoyl]amino]butyl)urea]	B (5-10)	> 200	50 to 70	–	–
Cc1cc(S(=O)(=O)N[C@@H]2CCN(CCOCCNC(=O)NCCCCNC(=O)NCCOCCN3CC[C@@H](NS(=O)(=O)c4ccc(O[C@H]5c6cc(Cl)cc(Cl)c6C[C@@H]5N(C)C)c(C)c4)C3)C2)ccc1O[C@H]1c2cc(Cl)cc(Cl)c2C[C@@H]1N(C)C [Example 53, 3-(2-[2-[(3R)-3-[(4-[[(1S,2S)-4,6-Dichloro-2-(dimethylamino)-2,3-dihydro-1H-inden-1-yl]oxy]-3-methylbenzene)sulfonamido]pyrrolidin-1 yl]ethoxy]ethyl)-1-(4-[[(2-[2-[(3R)-3-[(4-[[(1S,2S)-4,6-dichloro-2-(dimethylamino)-2,3-dihydro-1H-inden-1-yl]oxy]-3-methylbenzene)sulfonamido]pyrrolidin-1-yl]ethoxy]ethyl)carbamoyl]amino]butyl)urea]	B (5-10)	< 150	> 70	–	–
Cc1cc(S(=O)(=O)N[C@@H]2CCN(CCOCCNC(=O)NCCCCNC(=O)NCCOCCN3CC[C@@H](NS(=O)(=O)c4ccc(O[C@H]5c6cc(Cl)cc(C#N)c6C[C@@H]5N(C)C)c(C)c4)C3)C2)ccc1O[C@H]1c2cc(Cl)cc(C#N)c2C[C@@H]1N(C)C [Example 55, 3-(2-[2-[(3R)-3-[(4-[[(1S,2S)-6-Chloro-4-cyano-2-(dimethylamino)-2,3-dihydro-1H-inden-1-yl]oxy]-3-methylbenzene)sulfonamido]pyrrolidin-1-yl]ethoxy]ethyl)-1-(4-[[(2-[2-[(3R)-3-[(4-[[(1S,2S)-6-chloro-4-cyano-2-(dimethylamino)-2,3-dihydro-1H-inden-1-yl]oxy]-3-methylbenzene)sulfonamido]pyrrolidin-1-yl]ethoxy]ethyl)carbamoyl]amino]butyl)urea]	B (5-10)	150 to 200	> 70	–	–
Cc1cc(O[C@H]2c3cc(Cl)cc(Cl)c3C[C@@H]2N(C)C)c(F)cc1S(=O)(=O)NCCOCCOCCNC(=O)NCCCCNC(=O)NCCOCCOCCNS(=O)(=O)c1cc(F)c(O[C@H]2c3cc(Cl)cc(Cl)c3C[C@@H]2N(C)C)cc1C [Example 88, 3-[2-(2-[2-[(4-[[(1S,2S)-4,6-Dichloro-2-(dimethylamino)-2,3-dihydro-1H-inden-1-yl]oxy]-5-fluoro-2-methylbenzene)sulfonamido]ethoxy]ethoxy)ethyl]-1-[4-([[2-(2-[2-[(4-[[(1S,2S)-4,6-dichloro-2-(dimethylamino)-2,3-dihydro-1H-inden-1-yl]oxy]-5-fluoro-2-methylbenzene)sulfonamido]ethoxy]ethoxy)ethyl]carbamoyl]amino)butyl]urea]	B (5-10)	150 to 200	50 to 70	–	–
Cc1cc(S(=O)(=O)N[C@H]2CCN(CCOCCNC(=O)NCCCCNC(=O)NCCOCCN3CC[C@H](NS(=O)(=O)c4ccc(O[C@H]5c6cc(Cl)cc(Cl)c6C[C@@H]5N(C)C)c(C)c4)C3=O)C2=O)ccc1O[C@H]1c2cc(Cl)cc(Cl)c2C[C@@H]1N(C)C [Example 91, 1-(2-[2-[(3S)-3-[(4-[[(1S,2S)-4,6-Dichloro-2-(dimethylamino)-2,3-dihydro-1H-inden-1-yl]oxy]-3-methylbenzene)sulfonamido]-2-oxopyrrolidin-1-yl]ethoxy]ethyl)-3-(4-[[(2-[2-[(3S)-3-[(4-[[(1S,2S)-4,6-dichloro-2-(dimethylamino)-2,3-dihydro-1H-inden-1-yl]oxy]-3-methylbenzene)sulfonamido]-2-oxopyrrolidin-1-yl]ethoxy]ethyl)carbamoyl]amino]butyl)urea]	–	–	–	100 to 130	100 to 130
